One experiment concerns Hedgehog (Hh) signaling. Put plainly: Hh pathway assay (Shh-LIGHT2 Gli-dependent luciferase reporter, NIH-3T3). The experiment is classed as cell-based, murine. To be noted: Mus musculus; read-out: IC50 in Hh pathway assays. As for the experimental part:
NIH-3T3 cells stably transfected with Gli-dependent firefly luciferase reporter (Shh-LIGHT2 cells (Taipale, J. et al. (2000) Nature 406, 1005-1009) were seeded into 96-well plates at a density of 2×10^4 cells/well and cultured for 24 h. The cells were then cultured in low-serum (0.5% CS) media containing 100 U/mL penicillin, 100 μg/mL streptomycin, and 200 nM Smoothened agonist (SAG) (Chen, J. K. et al. (2002) Proc. Natl. Acad. Sci. U.S.A. 99, 14071-14076; Frank-Kamenetsky, M. et al. (2002) J. Biol. 1, 10) for 30 h. CellTiter AQueous One (20 μL/well; Promega) was added to the cells and incubated for 30 min at 37° C., and cell viabilities were measured as the 490-nm absorbance of the culture media using a Spectramax M2e microplate reader (Molecular Devices). The cells were then washed with PBS and incubated with Bright-Glo reagent (100 μL/well; Promega) for 5 min at room temperature. The resulting chemiluminescence was measured on a Veritas microplate luminometer (Turner BioSystems) and normalized to the CellTiter signal. The normalized luciferase activities for each compound treatment regimen were normalized further to the DMSO control, and dose-responsive curves were generated using Prism software (GraphPad).

In another experiment the target is T1, ALDH2 (Homo sapiens, UniProt P05091).
T1 construct: made in house
T1 sequence (P05091 18-517): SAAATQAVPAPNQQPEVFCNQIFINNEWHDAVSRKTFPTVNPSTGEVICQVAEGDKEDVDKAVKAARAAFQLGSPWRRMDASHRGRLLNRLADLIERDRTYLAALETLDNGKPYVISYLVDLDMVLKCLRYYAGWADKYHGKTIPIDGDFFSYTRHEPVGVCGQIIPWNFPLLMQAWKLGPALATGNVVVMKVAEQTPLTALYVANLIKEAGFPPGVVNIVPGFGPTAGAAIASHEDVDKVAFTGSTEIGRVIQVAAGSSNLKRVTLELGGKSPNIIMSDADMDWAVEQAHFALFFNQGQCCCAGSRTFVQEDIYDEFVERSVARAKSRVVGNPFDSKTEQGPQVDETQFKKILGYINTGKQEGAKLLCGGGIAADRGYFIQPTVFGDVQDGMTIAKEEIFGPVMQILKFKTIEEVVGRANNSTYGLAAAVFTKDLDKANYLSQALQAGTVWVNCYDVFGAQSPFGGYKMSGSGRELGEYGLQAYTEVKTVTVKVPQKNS
In words: ALDH2 enzyme kinetics assay. The experiment is classed as biochemical. Particulars: 50-μM compound concentration. As for the experimental part: Cloning, expression, and purification of human recombinant ALDH1A1, ALDH1A3, ALDH2, ALDH3A1, ALDH3A2, ALDH4A1, ALDH5A1 and ALDH7A1 isozymes were conducted as described previously (Chen, C. H. et al. (2015) Proc. Natl. Acad. Sci. U.S.A. 112, 3074-3079). Human ALDH1A2 (Origene, SC109995) and ALDH1B1 (T. Hurley, Indiana University) plasmids were cloned into the pET-15b expression vector (Novagen, 69661-3) containing an N-terminal hexahistidine tag. The mitochondria-targeting sequence of ALDH1B1 was also removed. […] The protein concentration for each fraction was measured (500 μL elution volume was collected as one fraction and was immediately mixed with 500 μL glycerol. The protein concentration for each fraction was measured (600 nm Protein Assay Reagent; Thermo Fisher Scientific), and protein-containing fractions were diluted with an equal volume of glycerol and stored at −80° C. Samples from each step were also collected for SDS-PAGE gel analysis. For ALDH1B1 protein co-expression with chaperones, pET-15b-ALDH1B1 and GroEL/GroES (Addgene, plasmid pBB541) plasmids were co-transformed into competent BL21 E. coli cells, which were subsequently grown in 1 L of Luria-Bertani medium containing 100 μg/mL ampicillin and 50 μg/mL spectinomycin at 37° C. […]

The structures appear in SMILES notation.

Usually IC50 stands for the concentration at which inhibition is half-maximal.

On to `COc1ccccc1-n1cc(-c2ccc(-c3ccccc3)cc2)[n+]2c1CCCCC2` [Imidazolium 2], for which the IC50 with Hedgehog (Hh) signaling is ~0.7 µM. On ALDH2, the “inhibition of ALDH2 activity” value is “neither imidazolium 1 or 2 could inhibit ALDH2 activity”.
